Where two headings read alike, the source gives them in different places.
How the values were obtained:
Type in all cases: in vivo
[1] = tested on: German cockroach (Blattella germanica); assay: Test Example 2: treated filter paper with sucrose bait, German cockroach male adults, mortality; settings: 144 h
[2] = tested on: house fly (Musca domeestica); assay: Test Example 3: treated filter paper with sucrose bait, house fly female adults, mortality; settings: 24 h
Procedure: On the bottom of a polyethylene cup of 5.5 cm in diameter was placed a filter paper of the same size, to which a water dilution (500 ppm) of each of the formulations obtained from present compounds 1, 2, 3, 4, 5, 6, 7, 8, 9, 10, 11, 12, 13, 14, 15, 16, 17, 18, 19, 20, 21, 25, 26, 27, 28, 29, 32, 33, 34, 35, 36, 37, 38, 39, 40, 41, 42, 43, 44, 45, 47, 51, 52, 53, 54, 55, 60, and 61 according to Formulation Example 1 was added dropwise in an amount of 0.7 ml, and the cup was uniformly charged with about 30 mg of sucrose as a bait. Ten female adults of house fly (Musca domeestica) were set free in each cup, which was then kept covered. After 1 day, their survival was examined to determine the mortality.

[3] = tested on: common mosquito (Culex pipiens pallens); assay: Test Example 4: treated water, common mosquito final-instar larvae, mortality; settings: 192 h

NC(=Nc1c([N+](=O)[O-])cc(C(F)(F)F)cc1[N+](=O)[O-])C(F)(F)C(F)(Cl)C(F)(F)Cl (stereo not drawn) [present compound 37, 3,4-Dichloro-N-(2,6-dinitro-4-trifluoromethylphenyl)-2,2,3,4,4-pentafluorobutyramidine]
100%: mortality at 500 µg/mL [1] | mortality at 500 µg/mL [2] | mortality at 3.5 ppm [3]

NC(=Nc1c([N+](=O)[O-])cc(C(F)(F)F)cc1[N+](=O)[O-])C(F)(Cl)Cl [present compound 34, 2,2-Dichloro-N-(2,6-dinitro-4-trifluoromethylphenyl)-2-fluoroacetamidine]
100%: mortality at 500 µg/mL [1] | mortality at 500 µg/mL [2] | mortality at 3.5 ppm [3]

NC(=Nc1c([N+](=O)[O-])cc(C(F)(F)F)cc1[N+](=O)[O-])C(F)(F)C(F)(F)Br [present compound 39, 3-Bromo-N-(2,6-dinitro-4-trifluoromethylphenyl)-2,2,3,3-tetrafluoropropionamidine]
100%: mortality at 500 µg/mL [1] | mortality at 500 µg/mL [2] | mortality at 3.5 ppm [3]

NC(=Nc1c(Cl)cc(C(F)(F)F)cc1Cl)C(Cl)Cl [present compound 12, 2,2-Dichloro-N-(2,6-dichloro-4-trifluoromethylphenyl)acetamidine]
100%: mortality at 500 µg/mL [1] | mortality at 500 µg/mL [2] | mortality at 3.5 ppm [3]

Cc1cc(C(F)(F)F)cc(Cl)c1N=C(N)C(F)(F)C(F)(F)F [present compound 15, N-(2-Chloro-6-methyl-4-trifluoromethylphenyl)-2,2,3,3,3-pentafluoropropionamidine]
100%: mortality at 500 µg/mL [1] | mortality at 500 µg/mL [2] | mortality at 3.5 ppm [3]

COC(=O)NC(=Nc1c(Cl)cc(C(F)(F)F)cc1Cl)C(F)(F)C(F)(F)F [present compound 60, [1-(2,6-dichloro-4-trifluoromethylphenylimino)-2,2,3,3,3-pentafluoropropyl]carbamic acid methyl ester]
100%: mortality at 500 µg/mL ([1]; water dilution (500 ppm) of flowable (Formulation Example 1), 0.7 ml on filter paper, male adults, after 6 days, read-out: mortality) | mortality at 500 µg/mL ([2]; water dilution (500 ppm) of flowable (Formulation Example 1), 0.7 ml on filter paper, female adults, after 1 day, read-out: mortality) | mortality at 3.5 ppm ([3]; active ingredient 3.5 ppm in ion-exchanged water (0.7 ml of 500 ppm dilution), final-instar larvae, after 8 days, read-out: mortality)

NC(=Nc1c(Cl)cc(C(F)(F)F)cc1Br)C(F)(F)C(F)(F)F [present compound 10, N-(2-Bromo-6-chloro-4-trifluoromethylphenyl)-2,2,3,3,3-pentafluoropropionamidine]
100%: mortality at 500 µg/mL [1] | mortality at 500 µg/mL [2] | mortality at 3.5 ppm [3]

From US6376710B2, “Amidine compounds and their use as pesticides” (Sumitomo Chemical Co., Ltd., priority 2000, dated 2002)
